Results taken from ChEMBL document CHEMBL6127113, “Penicamins A-L, Polyoxygenated Diterpenes from Penicillium camemberti JSB-7212” (J Nat Prod, 2024).
Calls of active or inactive are those of the source. The rule behind the calls is not given here.

Assays:
[1] = tested on: HeLa; test: Cytotoxicity against human HeLa cells assessed as cell growth inhibition at 50 uM incubated for 48 hrs by CCK-8 assay; assay type: functional, cell-based
[2] = tested on: A549; test: Cytotoxicity against human A549 cells assessed as cell growth inhibition at 50 uM incubated for 48 hrs by CCK-8 assay; assay type: functional, cell-based
[3] = tested on: HT-29; test: Cytotoxicity against human HT-29 cells assessed as cell growth inhibition at 50 uM incubated for 48 hrs by CCK-8 assay; assay type: functional, cell-based
[4] = tested on: MCF7; test: Cytotoxicity against human MCF7 cells assessed as cell growth inhibition at 50 uM incubated for 48 hrs by CCK-8 assay; assay type: functional, cell-based
[5] = tested on: HepG2; test: Cytotoxicity against human HepG2 cells assessed as cell growth inhibition at 50 uM incubated for 48 hrs by CCK-8 assay; assay type: functional, cell-based
[6] = tested on: Escherichia coli; test: Antimicrobial activity against Escherichia coli ATCC35218 assessed as inhibition of microbial growth at 50 uM incubated for 24 hrs by microbroth dilution assay; assay type: functional, organism-based
[7] = tested on: Staphylococcus aureus; test: Antimicrobial activity against Staphylococcus aureus ATCC25923 assessed as inhibition of microbial growth at 50 uM incubated for 24 hrs by microbroth dilution assay; assay type: functional, organism-based
[8] = Cytotoxicity against male BALB/c mouse Splenocyte cells incubated for 48 hrs by CCK-8 assay; assay type: toxicity, cell-based; conditions: splenocytes
[9] = tested on: Splenocyte; test: Immunosuppressive activity in male BALB/c mouse splenocyte assessed as reduction in LPS-induced B-cell proliferation incubated for 48 hrs by CCK-8 assay; assay type: functional, cell-based
[10] = Selectivity index, ratio of CC50 for cytotoxicity against male BALB/c mouse Splenocyte cells to IC50 for immunosuppressive activity in male BALB/c mouse splenocyte assessed as reduction in LPS-induced B-cell proliferation; assay type: toxicity, cell-based; conditions: splenocytes, read-out: Ratio CC50/IC50
[11] = tested on: Splenocyte; test: Immunosuppressive activity in male BALB/c mouse splenocyte assessed as reduction in ConA-induced T-cell proliferation incubated for 48 hrs by CCK-8 assay; assay type: functional, cell-based
[12] = Selectivity index, ratio of CC50 for cytotoxicity against male BALB/c mouse Splenocyte cells to IC50 for immunosuppressive activity in male BALB/c mouse splenocyte assessed as reduction in ConA-induced T-cell proliferation; assay type: toxicity, cell-based; conditions: splenocytes, read-out: Ratio CC50/IC50

Structure (SMILES)	Activity [1]	Activity [2]	Activity [3]	Activity [4]	Activity [5]	Activity [6]	Activity [7]	CC50 at 48 h [8]	IC50 [9]	selectivity ratio [10]	IC50 [11]	selectivity ratio [12]
C=C(C)[C@H]1CC[C@]2(C)C3=CC(=O)C(C)=CC[C@]3(C)C(=O)C[C@@]12O	inactive	inactive	inactive	inactive	inactive	inactive	inactive					
C=C(C)[C@H]1[C@H](O)C[C@]2(C)[C@@]34CC(=O)[C@@H](C)[C@@H](C[C@]3(C)C(=O)C[C@@]12O)O4	inactive	inactive	inactive	inactive	inactive	inactive	inactive					
C=C(C)[C@H]1CC[C@@]23CO[C@@]4(O)C(=O)C(C)=CC[C@](C)(C(=O)C[C@@]12O)[C@@]34O	inactive	inactive	inactive	inactive	inactive	inactive	inactive					
C=C(C)[C@H]1CC[C@]2(C)[C@@]34C[C@@H](O)[C@@H](C)[C@@H](C[C@]3(C)C(=O)C[C@@]12O)O4	inactive	inactive	inactive	inactive	inactive	inactive	inactive					
C=C(C)[C@H]1CC[C@]2(C)[C@@]34CC(=O)[C@@H](C)[C@@H](C[C@]3(C)C(=O)C[C@@]12O)O4	inactive	inactive	inactive	inactive	inactive	inactive	inactive					
C=C(CO)[C@H]1CC[C@]2(C)[C@@]34CC(=O)[C@@H](C)[C@@H](C[C@]3(C)C(=O)C[C@@]12O)O4	inactive	inactive	inactive	inactive	inactive	inactive	inactive	> 50 µM	3 µM	> 17	19 µM	> 2.6
C=C(CO)[C@H]1CC[C@@]2(C)C1=CC(=O)[C@@]1(C)C[C@H]3O[C@@]21CC(=O)[C@H]3C	inactive	inactive	inactive	inactive	inactive	inactive	inactive	> 50 µM	7.9 µM	> 6.3	20 µM	> 2.5
C=C(C)[C@H]1CC[C@@]23CO[C@@](O)(C[C@@]12O)[C@@]1(C)C[C@H]2O[C@]13C(=O)C(O)=C2C	inactive	inactive	inactive	inactive	inactive	inactive	inactive					
C=C(C)[C@H]1CC[C@]2(C)[C@@]3(O)CC(=O)C(C)=CC[C@]3(C)C(=O)C[C@@]12O	inactive	inactive	inactive	inactive	inactive	inactive	inactive					
C=C(C)[C@H]1CC[C@@]23CO[C@@]4(O)C(=O)[C@@H](C)CC[C@](C)(C(=O)C[C@@]12O)[C@@]34O	inactive	inactive	inactive	inactive	inactive	inactive	inactive					
C=C(C)[C@H]1CC[C@@]23CO[C@@](O)(C[C@@]12O)[C@@]1(C)C[C@H]2O[C@]13[C@@H](O)C(=O)[C@H]2C	inactive	inactive	inactive	inactive	inactive	inactive	inactive					
